pIC50: −log10 of the molar value. Like-named read-outs stand apart in the source and are kept apart here.
Tests used:
[1] = In vivo pharmacokinetic analysis (plasma); details: female, Balb/C, mouse, mice, read-out: Plasma half-life t1/2 (converted)
Method: Age 8 to 9 weeks Balb/C female mice were used for this study. The mice were maintained in a special pathogen-free environment and in disposable cages. Animal room was set to maintain temperature and relative humidity at 23° C.±3° C. and 55%±15%, respectively. Housing room was on a 12:12 light/dark cycle. Water was supplied ad libitum to each cage via water bottles. All mice were fed rodent diet with 18% protein. All animals were weighed before commencement of the study.
Compound 1 was stored at 4° C. protected from light. Dosing solutions were used within 2 hours of preparation. Compound 1 was formulated within 2 hours prior to dosing by adding the pre-calculated volume of PEG 400 (40% of total solution volume). Formulated compound 1 was vortexed and sonicated until a clear solution was formed. To this clear formulation, saline (60% of total solution volume) was added and vortexed until a clear solution was formed. The Compound 1 solution was filtered using a sterile syringe filter (0.2 μm coming filter). All Compound 1 solutions were mixed thoroughly prior to pulling up into syringes and prior to dosing. 12 mice were dosed intravenously at 5 mg/kg. 12 mice were dosed intraperitoneally at 10 mg/kg. 12 mice were dosed orally at 10 mg/kg. Animals were sacrificed for blood and organs sampling. Under isoflurane anesthesia, blood was collected via retro-orbital route. Blood samples were then centrifuged for 5 minutes at a minimum of 2,000×g. Plasma supernatant (a minimum of 50 μL or as much as feasible to collect) was collected. Plasma was stored at −80° C.
Bioanalytical analysis of plasma levels of Compound 1 was performed by mass spectrometry. Calibration standards were prepared by spiking the test compound into blank plasma. Calibrator concentrations were 5,000, 2,000, 1,000, 200, 100, 20, 10, 2 and 1 ng/mL. Calibration standard samples were processed along with the test samples.
Twenty μL aliquots of plasma test samples were treated with 100 μL of methanol: acetonitrile (5:95 v:v) containing internal standard (12.5 ng/mL verapamil). The mixtures were vortexed on a shaker for 15 minutes and subsequently centrifuged at 4,000 rpm for 15 minutes. An aliquot of 50 μL of the supernatant was mixed with 100 μL of water with 0.1% formic acid for injection to the LC/MS/MS (liquid chromatography/tandem-mass spectrometry).
The concentration of Compound 1 was determined by a UPLC-TIS-MS-MS method (ultra performance liquid chromatography—turbo ion spray—tandem mass spectrometry). The UPLC comprised a Shimadzu LC-30AD HPLC (high performance liquid chromatography). Chromatographic separation was achieved using a Waters UPLC column (Acquity UPLC BEH C18, 50×2.1 mm, 1.7 μM). Mobile phase A was water with 0.1% formic acid; mobile phase B was acetonitrile with 0.1% formic acid. The gradient program was as follows: 20% B (0-0.2 min), 20-95% B (0.2-1.2 min), 95% B (1.2-1.8 min), 95-20% B (1.81-2.2 min). The flow rate was 0.6 mL/minute. The column was maintained at 50° C.
Mass spectrometric analysis was performed using an AB Sciex API5000 with Turbo Ion Spray interface operating in a positive ionization mode. Quantification was performed using multiple reaction monitoring (MRM) method with the transitions of (m/z) 316.104→(m/z) 219.014 for Compound 1 and (m/z) 455.346→(m/z) 165 for verapamil (internal standard). Pharmacokinetics of Compound 1 ((E)-1-(3-(8-methoxy-2,3-dihydrobenzo[b][1,4]dioxin-6-yl)acryloyl)-5,6-dihydropyridin-2(1H)-one) in the plasma of the mice dosed intravenously (IV; 5 mg/kg), intraperitoneally (IP; 10 mg/kg) and orally (PO; 10 mg/kg) (n=3 per time point) is illustrated in FIG. 1.

[2] = system: triple negative breast cancer (DU4475) cells; assay: In vitro cell viability assay (CellTiter-Glo, ATP levels); assay type: cell-based; details: Homo sapiens, DU-4475, 168 h, 7-day incubation, average IC50
Method: (§1) The present disclosure provides a method for inhibiting cell viability, as measured by ATP levels. The method for inhibiting cell viability is drawn to contacting various cancer cells with the compounds described herein at various concentrations. The cancer cell lines were maintained in culture conditions at 37° C. in an atmosphere of 5% CO2 in air. The cells growing in an exponential growth phase were harvested and counted for plating. Compounds were incubated in two cancer cell types representing multiple myeloma (MOLP-8) and triple negative breast cancer (DU4475). Cells were plated at an optimized cell numbers per well in 96-well plates and allowed to attach to the plates overnight at approximately 80% confluency.
(§2) After addition of compounds, plates were incubated for 7-day. At the end of incubation period on day 8, media was removed and replaced with a solution of CellTiter-Glo™ reagent (Promega®) according to protocol. Luminescence was read using an EnVision® multi-label plate reader (Perkin-Elmer®), and signal intensity was calculated relative to positive and negative control wells. Cisplatin was included as the positive control. A dose-response calculation was performed in a non-linear regression fit and by using the Hill equation to calculate a concentration-response curve and 50% inhibitory concentration (IC50) values for each compound. […]

[3] = system: multiple myeloma (MOLP-8) cells; assay: as above; assay type: cell-based; details: Homo sapiens, MOLP-8, 168 h, 7-day incubation, average IC50
Method: as §1, §2

[4] = system: collagen-induced arthritis; assay: Collagen-induced arthritis in female Lewis rats; assay type: in vivo; details: 3 mg/kg QD PO, vs vehicle control rats
Method: Animals were anesthetized with isoflurane and given intradermal injections of 400 μl (2×200 μl) of Porcine Type II collagen in Freund's incomplete adjuvant spread equally over two sites on the back on study days 0. On day 7, a boost injection was given; intradermal injections of 100 μl of Porcine Type II collagen in Freund's incomplete adjuvant. Collagen was prepared by making a 2 mg/ml solution in 0.01 N Acetic acid. Equal volumes of collagen and Freund's incomplete adjuvant were emulsified by hand mixing with the syringes partially submerged in ice water for 10 minutes, at which point a bead of this material will hold its form when placed in water.
On study day 6, the animals were randomized by body weight into treatment groups and dosing was initiated.
Efficacy evaluation was based on animal body weights, ankle caliper measurements, and final hind paw weights. Terminal serum was analyzed for anti-type II collagen antibody (IgG) concentrations.
The rats were weighed on day 6 for randomization, on day 9, and daily on days 11 through 17.
Caliper measurements of right and left ankle diameters were taken on study days 9 (baseline) and 11 through 17. Ankle caliper measurements were made with a digital micrometer (Digitrix II; Fowler & NSK). Baseline measurements were taken using one ankle with values rounded to one thousandth of an inch. […]

Q: What does the source list for `COc1cc(/C=C/C(=O)N2CCC=CC2=O)cc2c1OCCO2` [Compound 1, (E)-1-(3-(8-methoxy-2,3-dihydrobenzo[b][1,4]dioxin-6-yl)acryloyl)-5,6-dihydropyridin-2(1H)-one]?
A: half-life ([1]; plasma, IP, 10 mg/kg): 1.14 h; half-life ([1]; plasma, IV, 5 mg/kg): 1.66 h; half-life ([1]; plasma, PO, 10 mg/kg): 2.16 h

Q: With `C/C(=C/c1ncccn1)C(=O)N1CCC=CC1=O` [Compound 49] as the compound, how does the pIC50 [2] read?
A: 5.30

Q: And the pIC50 [3]?
A: 5.21

Q: Which results are given for `CCS(=O)(=O)N1CC(CC#N)(n2cc(-c3ncnc4[nH]ccc34)cn2)C1` [baricitinib]?
A: reduction of ankle diameter measurements AUC [4]: 72%; reduction of final hind-paw weights [4]: 71%

Q: What does the source list for `COc1cc(/C=C/C(=O)N2CCC=CC2=O)cc(OC)c1OC` [piperlongumine, 1-[(E)-3-(3,4,5-trimethoxyphenyl)prop-2-enoyl]-2,3-dihydropyridin-6-one]?
A: half-life ([1]; in vivo, IP, 10 mg/kg): 1.07 h; half-life ([1]; in vivo, IV, 5 mg/kg): 1.26 h; half-life ([1]; in vivo, PO, 10 mg/kg): 1.31 h

Source: patent publication US20200377510A1, “DERIVATIVES OF PIPERLONGUMINE AND USES THEREOF” (Auransa Inc., priority 2019, published 2020)
